The values below come from patent US11912706B2, “Crystal forms of a POL1 inhibitor” (PIMERA, INC., priority 2017, dated 2024).

The structures appear in SMILES notation. ≈ marks a conversion by molar mass, not a printed value. Some results are limits rather than exact numbers.

Format in all cases: physicochemical
Series [1] is described as follows: Rapid solvent solubility screen. The following applies: thermodynamic from solid. Here is the method:
Thirteen solvents were chosen for a rapid solvent solubility screen (See, Table 1). 10 mg of multiphasic Compound (I) prepared according to Example 1 was placed in each of 13 vials and 5 volume aliquots of the appropriate solvent systems were added to each vial.
Between each addition, the mixture was checked for dissolution and if no dissolution was apparent, the mixture was heated to 40° C. and checked again. This procedure was continued until dissolution was observed or until 100 volumes of solvent had been added.

Series [2] is described as follows: Gravimetric Vapor Sorption (GVS). The following applies: up to 90% relative humidity (RH). Here is the method: Approximately 10-20 mg of sample was placed into a mesh vapor sorption balance pan and loaded into an IGAsorp Moisture Sorption Analyzer balance by Hiden Analytical.
The sample was subjected to a ramping profile from 40% to 90% relative humidity (RH) at 10% increments, maintaining the sample at each step until a stable weight had been achieved (98% step completion). After completion of the sorption cycle, the sample was dried using the same procedure to 0% RH, and finally taken back to the starting point of 40% RH. The weight change during the sorption/desorption cycles was plotted, allowing for the hygroscopic nature of the sample to be determined.

Series [3] in a line: 7 day stability test of crystal forms (PXRD post storage). The following applies: 7-day storage. Here is the method: 10 mg of Forms 1, 2, 3, 4 and 5 were weighed out into separate vials.
[…] After completion, PXRD analysis was performed on each of these samples.

The nature of series [4]: Further stability studies of Form 1 (2 and 4 weeks; PXRD, NMR, HPLC). As to the method:
10 mg of Form 1 was weighed out into each of 12 vials. […] vials were placed in each storage condition of: (1) 40° C. with an open cap; (2) 75% RH with an open cap; (3) 50° C. with a closed cap; and (4) room temperature with a closed cap.
Two (2) vials were extracted at each time point of 2 and 4 weeks and PXRD, NMR and HPLC analysis was performed.

Series [5] can be described thus: Competitive slurrying of Form 1 and Form 5. The following applies: dichloromethane, heptane, methanol; ambient, 60° C. or 35° C.; 24 hours. As to the method: Saturated solutions of Compound (I) in multiphasic form were created in two solutions each dichloromethane, heptane and methanol.
10 mg of Form 1 and Form 5 were added to each vial. […] was stirred at ambient conditions for a period of 24 hours, while the other heptane and methanol vials were stirred at 60° C. for 24 hours.
The remaining dichloromethane vial was stirred at 35° C. for 24 hours. The resulting material was analyzed by PXRD, before being dried with a vacuum pump overnight to dry before DSC analysis of samples.

Setting [6] is: ambient conditions (closed vial).

As for `CNC(=O)c1cc2ccc(N3CCCN(C)CC3)nc2n2c1nc1ccccc12` [Compound (I), N-methyl-2-(4-methyl-1,4-diazepan-1-yl)benzo[4,5]imidazo[1,2-a][1,8]naphthyridine-6-carbaxomide], the solubility (as a rule, the concentration that dissolves in the medium under given conditions) in series [1] (acetonitrile, 40 °C, organic solvent or mixture) was less than 10000 µg/mL; in series [1] (dichloromethane, organic solvent or mixture), 200000 µg/mL (≈ 515 mM); in series [1] (dimethylformamide, 40 °C, organic solvent or mixture), less than 10000 µg/mL; in series [1] (ethanol, 40 °C, organic solvent or mixture), less than 10000 µg/mL; in series [1] (ethyl acetate, 40 °C, organic solvent or mixture), less than 10000 µg/mL; in series [1] (heptane, 40 °C, organic solvent or mixture), less than 10000 µg/mL. The solubility is less than 10000 µg/mL in series [1] (majority of the thirteen solvents assessed, 40 °C, organic solvent or mixture, majority of solvents assessed); 12500 µg/mL (≈ 32.2 mM) in series [1] (methanol, organic solvent or mixture); less than 10000 µg/mL in series [1] (organic solvent or mixture, Acetone, up to 100 volumes, heated to 40° C. if no dissolution); less than 10000 µg/mL in series [1] (propan-2-ol, 40 °C, organic solvent or mixture); less than 10000 µg/mL in series [1] (t-butylmethyl ether, 40 °C, organic solvent or mixture); less than 10000 µg/mL in series [1] (tetrahydrofuran, 40 °C, organic solvent or mixture). For the same molecule, the solubility in series [1] (toluene, 40 °C, organic solvent or mixture) was less than 10000 µg/mL; in series [1] (water, 40 °C), less than 10000 µg/mL. The “hygroscopic nature (GVS)” value in series [2] is “non-hygroscopic”. Further, the “mass uptake (GVS)” value in series [2] was 0.8%.
Turning to `CNC(=O)c1cc2ccc(N3CCCN(C)CC3)nc2n2c1nc1ccccc12` [Form 1, N-methyl-2-(4-methyl-1,4-diazepan-1-yl)benzo[4,5]imidazo[1,2-a][1,8]naphthyridine-6-carbaxomide], the “Form stability after storage (PXRD)” value is “stable and maintains its form” in series [3] (40° C./75% RH (closed vial)); “stable and maintains its form” in series [3] (setting [6]); “stable and maintains its form” in series [4] (2 weeks and 4 weeks, 40° C./75% RH, 50° C. and RT). The “Structural integrity post stability testing (NMR)” value in series [4] (2 and 4 weeks, 40° C./75% RH, 50° C., room temperature) was “maintains its structural integrity and does not degrade”. In addition, the “% Purity (HPLC) post stability studies” value was found to be 99.3% in series [4] (40° C./75% Relative Humidity, 2 weeks); 99.6% in series [4] (40° C./75% Relative Humidity, 4 weeks); 99.4% in series [4] (50° C./Ambient % RH, 2 weeks); 99.7% in series [4] (50° C./Ambient % RH, 4 weeks); 99.2% in series [4] (Room Temperature, 2 weeks); 99.1% in series [4] (Room Temperature, 4 weeks).
For `CNC(=O)c1cc2ccc(N3CCCN(C)CC3)nc2n2c1nc1ccccc12` [Form 2, N-methyl-2-(4-methyl-1,4-diazepan-1-yl)benzo[4,5]imidazo[1,2-a][1,8]naphthyridine-6-carbaxomide], the “Form stability after storage (PXRD)” value in series [3] (40° C./75% RH (closed vial)) is “transitions to Form 1”; in series [3] (setting [6]) it was “stable and maintains its form”.
Take `CNC(=O)c1cc2ccc(N3CCCN(C)CC3)nc2n2c1nc1ccccc12` [Form 3, N-methyl-2-(4-methyl-1,4-diazepan-1-yl)benzo[4,5]imidazo[1,2-a][1,8]naphthyridine-6-carbaxomide]: the “Form stability after storage (PXRD)” value was “transitions to Form 1” in series [3] (40° C./75% RH (closed vial)); “stable and maintains its form” in series [3] (setting [6]).
Regarding `CNC(=O)c1cc2ccc(N3CCCN(C)CC3)nc2n2c1nc1ccccc12` [Form 4, N-methyl-2-(4-methyl-1,4-diazepan-1-yl)benzo[4,5]imidazo[1,2-a][1,8]naphthyridine-6-carbaxomide], the “Form stability after storage (PXRD)” value was “transitions to Form 1” in series [3] (40° C./75% RH (closed vial)); “stable and maintains its form” in series [3] (setting [6]).
Take `CNC(=O)c1cc2ccc(N3CCCN(C)CC3)nc2n2c1nc1ccccc12` [Form 5, N-methyl-2-(4-methyl-1,4-diazepan-1-yl)benzo[4,5]imidazo[1,2-a][1,8]naphthyridine-6-carbaxomide]: the “Form transition in competitive slurry (PXRD of damp slurry residue)” value in series [5] was “transition from Form 5 towards Form 1”. The “Form stability after storage (PXRD)” value in series [3] (40° C./75% RH (closed vial)) is “stable and maintains its form”; in series [3] (setting [6]) it was “stable and maintains its form”.
